Source: PubChem BioAssay (NCI)
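48-hour exposure; five concentrations; linearly interpolated endpoints. GI50 = concentration required for 50% inhibition of growth. Definition used: TGI = concentration required for complete inhibition of growth.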

Columns and labels:
Test in all cases: inhibition of tumour cell growth, NCI panel, 48 h
786-0 renal = system: 786-0 renal
A498 renal = system: A498 renal
A549 NSCLC = system: A549 NSCLC
ACHN renal = system: ACHN renal
BT-549 breast = system: BT-549 breast
CAKI-1 renal = system: CAKI-1 renal
CCRF-CEM leukemia = system: CCRF-CEM leukemia
COLO 205 colon = system: COLO 205 colon
DU-145 prostate = system: DU-145 prostate
EKVX NSCLC = system: EKVX NSCLC
HCC-2998 colon = system: HCC-2998 colon
HCT-116 colon = system: HCT-116 colon
HCT-15 colon = system: HCT-15 colon
HL-60(TB) leukemia = system: HL-60(TB) leukemia
HOP-62 NSCLC = system: HOP-62 NSCLC
HOP-92 NSCLC = system: HOP-92 NSCLC
HS 578T breast = system: HS 578T breast
HT29 colon = system: HT29 colon
IGROV1 ovarian = system: IGROV1 ovarian
K-562 leukemia = system: K-562 leukemia
KM12 colon = system: KM12 colon
LOX IMVI melanoma = system: LOX IMVI melanoma
M14 melanoma = system: M14 melanoma
MALME-3M melanoma = system: MALME-3M melanoma
MCF7 breast = system: MCF7 breast
MDA-MB-231 breast = system: MDA-MB-231 breast
MDA-MB-435 = system: MDA-MB-435
MOLT-4 leukemia = system: MOLT-4 leukemia
NCI-H226 lung = system: NCI-H226 lung
NCI-H23 lung = system: NCI-H23 lung
NCI-H460 lung = system: NCI-H460 lung
NCI-H522 lung = system: NCI-H522 lung
NCI/ADR-RES ovarian = system: NCI/ADR-RES ovarian
OVCAR-3 ovarian = system: OVCAR-3 ovarian
OVCAR-4 ovarian = system: OVCAR-4 ovarian
OVCAR-5 ovarian = system: OVCAR-5 ovarian
OVCAR-8 ovarian = system: OVCAR-8 ovarian
PC-3 prostate = system: PC-3 prostate
RPMI-8226 leukemia = system: RPMI-8226 leukemia
RXF 393 renal = system: RXF 393 renal
SF-268 CNS = system: SF-268 CNS
SF-295 CNS = system: SF-295 CNS
SF-539 CNS = system: SF-539 CNS
SK-MEL-2 melanoma = system: SK-MEL-2 melanoma
SK-MEL-28 melanoma = system: SK-MEL-28 melanoma
SK-MEL-5 melanoma = system: SK-MEL-5 melanoma
SK-OV-3 ovarian = system: SK-OV-3 ovarian
SN12C renal = system: SN12C renal
SNB-19 CNS = system: SNB-19 CNS
SNB-75 CNS = system: SNB-75 CNS
SR leukemia = system: SR leukemia
SW-620 colon = system: SW-620 colon
T-47D breast = system: T-47D breast
TK-10 renal = system: TK-10 renal
U251 CNS = system: U251 CNS
UACC-257 melanoma = system: UACC-257 melanoma
UACC-62 melanoma = system: UACC-62 melanoma
UO-31 renal = system: UO-31 renal

SMILES: COc1cc2c3c(n(CCCNC4CCC4)c(=O)c2cc1OC)-c1cc2c(cc1C3=O)OCO2
- GI50 (786-0 renal): 1540 nM
- TGI (786-0 renal): 3050 nM
- GI50 (A498 renal): 14500 nM
- TGI (A498 renal): 29200 nM
- GI50 (A549 NSCLC): 1300 nM
- TGI (A549 NSCLC): 3310 nM
- GI50 (ACHN renal): 873 nM
- TGI (ACHN renal): 2360 nM
- GI50 (BT-549 breast): 7270 nM
- TGI (BT-549 breast): 22500 nM
- GI50 (CAKI-1 renal): 1110 nM
- TGI (CAKI-1 renal): 2370 nM
- GI50 (CCRF-CEM leukemia): 75.7 nM
- TGI (CCRF-CEM leukemia): 3550 nM
- GI50 (COLO 205 colon): 1790 nM
- TGI (COLO 205 colon): 6620 nM
- GI50 (DU-145 prostate): 1040 nM
- TGI (DU-145 prostate): 2560 nM
- GI50 (EKVX NSCLC): 1960 nM
- TGI (EKVX NSCLC): 4140 nM
- GI50 (HCC-2998 colon): 1420 nM
- TGI (HCC-2998 colon): 2820 nM
- GI50 (HCT-116 colon): 1050 nM
- TGI (HCT-116 colon): 2780 nM
- GI50 (HCT-15 colon): 1330 nM
- TGI (HCT-15 colon): 3130 nM
- GI50 (HL-60(TB) leukemia): 525 nM
- TGI (HL-60(TB) leukemia): 1520 nM
- GI50 (HOP-62 NSCLC): 393 nM
- TGI (HOP-62 NSCLC): 1970 nM
- GI50 (HOP-92 NSCLC): 5260 nM
- TGI (HOP-92 NSCLC): 13400 nM
- GI50 (HS 578T breast): 6320 nM
- TGI (HS 578T breast): 15800 nM
- GI50 (HT29 colon): 1280 nM
- TGI (HT29 colon): 2850 nM
- GI50 (IGROV1 ovarian): 1480 nM
- TGI (IGROV1 ovarian): 3500 nM
- GI50 (K-562 leukemia): 554 nM
- TGI (K-562 leukemia): 3220 nM
- GI50 (KM12 colon): 2010 nM
- TGI (KM12 colon): 5720 nM
- GI50 (LOX IMVI melanoma): 360 nM
- TGI (LOX IMVI melanoma): 884 nM
- GI50 (M14 melanoma): 1350 nM
- TGI (M14 melanoma): 2800 nM
- GI50 (MALME-3M melanoma): 4340 nM
- TGI (MALME-3M melanoma): 9280 nM
- GI50 (MCF7 breast): 109 nM
- TGI (MCF7 breast): 1870 nM
- GI50 (MDA-MB-231 breast): 1320 nM
- TGI (MDA-MB-231 breast): 2780 nM
- GI50 (MDA-MB-435): 1590 nM
- TGI (MDA-MB-435): 3050 nM
- GI50 (MOLT-4 leukemia): 26.7 nM
- TGI (MOLT-4 leukemia): 1910 nM
- GI50 (NCI-H226 lung): 5540 nM
- TGI (NCI-H226 lung): 26100 nM
- GI50 (NCI-H23 lung): 1290 nM
- TGI (NCI-H23 lung): 3190 nM
- GI50 (NCI-H460 lung): 145 nM
- TGI (NCI-H460 lung): 1660 nM
- GI50 (NCI-H522 lung): 581 nM
- TGI (NCI-H522 lung): 2490 nM
- GI50 (NCI/ADR-RES ovarian): 1090 nM
- TGI (NCI/ADR-RES ovarian): 3610 nM
- GI50 (OVCAR-3 ovarian): 1510 nM
- TGI (OVCAR-3 ovarian): 3050 nM
- GI50 (OVCAR-4 ovarian): 1770 nM
- TGI (OVCAR-4 ovarian): 3330 nM
- GI50 (OVCAR-5 ovarian): 1890 nM
- TGI (OVCAR-5 ovarian): 3440 nM
- GI50 (OVCAR-8 ovarian): 1300 nM
- TGI (OVCAR-8 ovarian): 3610 nM
- GI50 (PC-3 prostate): 1220 nM
- TGI (PC-3 prostate): 2870 nM
- GI50 (RPMI-8226 leukemia): 492 nM
- TGI (RPMI-8226 leukemia): 2180 nM
- GI50 (RXF 393 renal): 1340 nM
- TGI (RXF 393 renal): 2850 nM
- GI50 (SF-268 CNS): 950 nM
- TGI (SF-268 CNS): 2830 nM
- GI50 (SF-295 CNS): 274 nM
- TGI (SF-295 CNS): 1740 nM
- GI50 (SF-539 CNS): 1210 nM
- TGI (SF-539 CNS): 2560 nM
- GI50 (SK-MEL-2 melanoma): 18400 nM
- TGI (SK-MEL-2 melanoma): 33700 nM
- GI50 (SK-MEL-28 melanoma): 1750 nM
- TGI (SK-MEL-28 melanoma): 3380 nM
- GI50 (SK-MEL-5 melanoma): 5090 nM
- TGI (SK-MEL-5 melanoma): 10300 nM
- GI50 (SK-OV-3 ovarian): 977 nM
- TGI (SK-OV-3 ovarian): 5630 nM
- GI50 (SN12C renal): 1480 nM
- TGI (SN12C renal): 3190 nM
- GI50 (SNB-19 CNS): 1240 nM
- TGI (SNB-19 CNS): 3180 nM
- GI50 (SNB-75 CNS): 1120 nM
- TGI (SNB-75 CNS): 2640 nM
- GI50 (SR leukemia): 57.6 nM
- TGI (SR leukemia): 793 nM
- GI50 (SW-620 colon): 452 nM
- TGI (SW-620 colon): 2560 nM
- GI50 (T-47D breast): 3730 nM
- TGI (T-47D breast): 10200 nM
- GI50 (TK-10 renal): 19000 nM
- TGI (TK-10 renal): 33700 nM
- GI50 (U251 CNS): 838 nM
- TGI (U251 CNS): 2870 nM
- GI50 (UACC-257 melanoma): 16300 nM
- TGI (UACC-257 melanoma): 34200 nM
- GI50 (UACC-62 melanoma): 4200 nM
- TGI (UACC-62 melanoma): 12500 nM
- GI50 (UO-31 renal): 1660 nM
- TGI (UO-31 renal): 4530 nM
